Measured values published in PMC5218480 (PLoS ONE, 2017).

System: MV-4-11 cells
Assay: Gene expression microarray analysis (Affymetrix PrimeView) and GSEA
Assay type: cell-based, human
Set-up: RFU PODN (11730768_x_at) / Fold change /veh PODN (11730768_x_at) / RFU LINC00158 (11744669_a_at) / Fold change /veh LINC00158 (11744669_a_at) / RFU DUSP10 (11751237_a_at) / Fold change /veh DUSP10 (11751237_a_at) / RFU ID3 (11757404_x_at) / Fold change /veh ID3 (11757404_x_at) / RFU PLEKHG5 (11737974_s_at) / Fold change /veh PLEKHG5 (11737974_s_at) / RFU LRRC4B (11730491_at) / Fold change /veh LRRC4B (11730491_at) / RFU GIMAP4 (11747438_a_at) / Fold change /veh GIMAP4 (11747438_a_at) / RFU KRT8 (11758183_x_at) / Fold change /veh KRT8 (11758183_x_at) / RFU CNN1 (11734310_a_at) / Fold change /veh CNN1 (11734310_a_at) / RFU VPS37D (11726825_at) / Fold change /veh VPS37D (11726825_at) / RFU C10orf10 (11716522_x_at) / Fold change /veh C10orf10 (11716522_x_at) / RFU KIR2DL2 /// KIR2DL4 /// KIR2DL5A /// KIR2DL5B /// KIR2DS1 /// KIR2DS2 /// KIR2DS3 /// KIR2DS4 /// KIR3DL3 /// KIR3DL3 /// KIR3DS1 (11738374_at) / Fold change /veh KIR2DL2 /// KIR2DL4 /// KIR2DL5A /// KIR2DL5B /// KIR2DS1 /// KIR2DS2 /// KIR2DS3 /// KIR2DS4 /// KIR3DL3 /// KIR3DL3 /// KIR3DS1 (11738374_at) / RFU C1QL1 (11718748_at) / Fold change /veh C1QL1 (11718748_at) / RFU TMPRSS4 (11747572_a_at) / Fold change /veh TMPRSS4 (11747572_a_at) / RFU HAMP (11756126_x_at) / Fold change /veh HAMP (11756126_x_at) / RFU RNFT2 (11725882_a_at) / Fold change /veh RNFT2 (11725882_a_at) / RFU NR4A2 (11747474_a_at) / Fold change /veh NR4A2 (11747474_a_at) / RFU ABCC12 (11746883_a_at) / Fold change /veh ABCC12 (11746883_a_at) / RFU TMEM136 (11760407_x_at) / Fold change /veh TMEM136 (11760407_x_at) / RFU CLDN22 /// WWC2 (11732394_at) / Fold change /veh CLDN22 /// WWC2 (11732394_at) / RFU HLA-DPB1 (11760878_x_at) / Fold change /veh HLA-DPB1 (11760878_x_at) / RFU SPINT1 (11716480_a_at) / Fold change /veh SPINT1 (11716480_a_at) / RFU GAP43 (11754022_s_at) / Fold change /veh GAP43 (11754022_s_at) / RFU A4GNT (11735810_at) / Fold change /veh A4GNT (11735810_at) / RFU PRB3 (11715151_x_at) / Fold change /veh PRB3 (11715151_x_at) / RFU TUBB4B (11761932_at) / Fold change /veh TUBB4B (11761932_at) / RFU CAPN14 (11732068_a_at) / Fold change /veh CAPN14 (11732068_a_at) / RFU TMCC2 (11721928_a_at) / Fold change /veh TMCC2 (11721928_a_at) / RFU IRGQ (11745062_a_at) / Fold change /veh IRGQ (11745062_a_at) / RFU FAM174B (11720279_a_at) / Fold change /veh FAM174B (11720279_a_at) / RFU TMPRSS4 (11748680_a_at) / Fold change /veh TMPRSS4 (11748680_a_at) / RFU FAM212B (11763350_a_at) / Fold change /veh FAM212B (11763350_a_at) / RFU PLEKHG5 (11743358_a_at) / Fold change /veh PLEKHG5 (11743358_a_at) / RFU ZSCAN30 (11745921_a_at) / Fold change /veh ZSCAN30 (11745921_a_at) / RFU CMKLR1 (11741424_a_at) / Fold change /veh CMKLR1 (11741424_a_at) / RFU LOC101060620 /// MAPK8IP1 (11723275_at) / Fold change /veh LOC101060620 /// MAPK8IP1 (11723275_at) / RFU SPTSSB (11747773_x_at) / Fold change /veh SPTSSB (11747773_x_at) / RFU PRSS12 (11739890_at) / Fold change /veh PRSS12 (11739890_at) / RFU BIN1 (11741810_x_at) / Fold change /veh BIN1 (11741810_x_at) / RFU WNT11 (11732464_a_at) / Fold change /veh WNT11 (11732464_a_at) / RFU C10orf10 (11716521_a_at) / Fold change /veh C10orf10 (11716521_a_at) / RFU C5orf56 (11738089_at) / Fold change /veh C5orf56 (11738089_at) / RFU CYB561 (11721691_x_at) / Fold change /veh CYB561 (11721691_x_at) / RFU ANKRD19P (11752326_a_at) / Fold change /veh ANKRD19P (11752326_a_at) / RFU OR2T12 /// OR2T33 /// OR2T8 (11738714_s_at) / Fold change /veh OR2T12 /// OR2T33 /// OR2T8 (11738714_s_at) / RFU VCAN (11748164_a_at) / Fold change /veh VCAN (11748164_a_at) / RFU JSRP1 (11732532_at) / Fold change /veh JSRP1 (11732532_at) / RFU KRTAP10-11 (11738290_x_at) / Fold change /veh KRTAP10-11 (11738290_x_at) / RFU MYO3A (11730013_a_at) / Fold change /veh MYO3A (11730013_a_at) / RFU EBF3 (11725865_a_at) / Fold change /veh EBF3 (11725865_a_at) / RFU CAMK2N1 (11719241_x_at) / Fold change /veh CAMK2N1 (11719241_x_at) / RFU C5orf56 (11738088_a_at) / Fold change /veh C5orf56 (11738088_a_at) / RFU OLFML3 (11715873_a_at) / Fold change /veh OLFML3 (11715873_a_at) / RFU LOC100653217 /// NTM (11731650_a_at) / Fold change /veh LOC100653217 /// NTM (11731650_a_at) / RFU MAPK11 (11762145_a_at) / Fold change /veh MAPK11 (11762145_a_at) / RFU FIZ1 (11724087_x_at) / Fold change /veh FIZ1 (11724087_x_at) / RFU OASL (11726364_x_at) / Fold change /veh OASL (11726364_x_at) / RFU SOX15 (11748057_x_at) / Fold change /veh SOX15 (11748057_x_at) / RFU CD79A (11719716_a_at) / Fold change /veh CD79A (11719716_a_at) / RFU HIST1H1D (11736915_at) / Fold change /veh HIST1H1D (11736915_at) / RFU CASKIN2 (11723855_a_at) / Fold change /veh CASKIN2 (11723855_a_at) / RFU LOC730098 (11760151_x_at) / Fold change /veh LOC730098 (11760151_x_at) / RFU OR4N2 (11742367_at) / Fold change /veh OR4N2 (11742367_at) / RFU PRRT2 (11749266_a_at) / Fold change /veh PRRT2 (11749266_a_at) / RFU SNX32 (11753110_a_at) / Fold change /veh SNX32 (11753110_a_at) / RFU CDHR5 (11726645_a_at) / Fold change /veh CDHR5 (11726645_a_at) / RFU RCAN1 (11760418_a_at) / Fold change /veh RCAN1 (11760418_a_at) / RFU FAM167A (11723789_a_at) / Fold change /veh FAM167A (11723789_a_at) / RFU FAM26E (11764081_at) / Fold change /veh FAM26E (11764081_at) / RFU ISYNA1 (11749810_s_at) / Fold change /veh ISYNA1 (11749810_s_at) / RFU ACY1 (11761880_at) / Fold change /veh ACY1 (11761880_at) / RFU 11764098_at / Fold change /veh 11764098_at / RFU SAMD14 (11745864_x_at) / Fold change /veh SAMD14 (11745864_x_at) / RFU NPB (11741838_a_at) / Fold change /veh NPB (11741838_a_at) / RFU TMPRSS6 (11731388_a_at) / Fold change /veh TMPRSS6 (11731388_a_at) / RFU KRTAP10-2 (11738614_at) / Fold change /veh KRTAP10-2 (11738614_at) / RFU ARHGAP8 /// PRR5-ARHGAP8 (11727945_x_at) / Fold change /veh ARHGAP8 /// PRR5-ARHGAP8 (11727945_x_at) / RFU KRTAP5-7 /// NADSYN1 (11734609_at) / Fold change /veh KRTAP5-7 /// NADSYN1 (11734609_at) / RFU RASL12 (11751679_a_at) / Fold change /veh RASL12 (11751679_a_at) / RFU CDKN2B (11736163_a_at) / Fold change /veh CDKN2B (11736163_a_at) / RFU PRF1 (11729649_at) / Fold change /veh PRF1 (11729649_at) / RFU, ZNF638 /// ZNF638-IT1 / Fold change vs veh, ZNF638 /// ZNF638-IT1 / RFU, PANK3 / Fold change vs veh, PANK3 / RFU, SH3YL1 / Fold change vs veh, SH3YL1 / RFU, ZEB2 / Fold change vs veh, ZEB2 / RFU, NRIP1 / Fold change vs veh, NRIP1 / RFU, PTTG1IP / Fold change vs veh, PTTG1IP / RFU, CAPN2 / Fold change vs veh, CAPN2 / RFU, MED14 / Fold change vs veh, MED14 / RFU, SNORA58 / Fold change vs veh, SNORA58 / RFU, C1orf63 / Fold change vs veh, C1orf63 / RFU, LRRFIP1 / Fold change vs veh, LRRFIP1 / RFU, NDUFAF7 / Fold change vs veh, NDUFAF7 / RFU, SLC12A2 / Fold change vs veh, SLC12A2 / RFU, IBTK / Fold change vs veh, IBTK / RFU, ESF1 / Fold change vs veh, ESF1 / Fold change vs veh, TMEM50B / RFU, TAOK1 / Fold change vs veh, TAOK1 / RFU, ACBD3 / Fold change vs veh, ACBD3 / RFU, TMA16 / Fold change vs veh, TMA16 / RFU, RWDD3 / Fold change vs veh, RWDD3 / RFU, BCAT1 / Fold change vs veh, BCAT1 / RFU, EDEM3 / Fold change vs veh, EDEM3 / RFU, TMEM33 / Fold change vs veh, TMEM33 / RFU, WDR75 / Fold change vs veh, WDR75 / RFU, AHCTF1 / Fold change vs veh, AHCTF1 / RFU, TFRC / Fold change vs veh, TFRC / RFU, ZDHHC17 / Fold change vs veh, ZDHHC17 / RFU, NOM1 / Fold change vs veh, NOM1 / RFU, ARL8B / Fold change vs veh, ARL8B / RFU, ZBTB11 / Fold change vs veh, ZBTB11 / RFU, TAMM41 / Fold change vs veh, TAMM41 / RFU, KIAA1704 /// LOC100996395 / Fold change vs veh, KIAA1704 /// LOC100996395 / RFU, ING1 / Fold change vs veh, ING1 / RFU, TRMT61B / Fold change vs veh, TRMT61B / RFU, FUBP3 / Fold change vs veh, FUBP3 / RFU, TP53 / Fold change vs veh, TP53 / RFU, TNKS2 / Fold change vs veh, TNKS2 / RFU, ZFP14 / Fold change vs veh, ZFP14 / RFU, ACTR2 / Fold change vs veh, ACTR2 / RFU, PPP3R1 / Fold change vs veh, PPP3R1 / RFU, PIK3R1 / Fold change vs veh, PIK3R1 / RFU, HNRNPA1 / Fold change vs veh, HNRNPA1 / RFU, RNF170 / Fold change vs veh, RNF170 / RFU, ZNF28 / Fold change vs veh, ZNF28 / RFU, RNGTT / Fold change vs veh, RNGTT / RFU, OGT / Fold change vs veh, OGT / RFU, BRD1 / Fold change vs veh, BRD1 / RFU, MARS / Fold change vs veh, MARS / RFU, ZNF655 / Fold change vs veh, ZNF655 / RFU, FAHD1 / Fold change vs veh, FAHD1 / RFU, BDP1 / Fold change vs veh, BDP1 / RFU, LRRCC1 / Fold change vs veh, LRRCC1 / RFU, ARID1A / Fold change vs veh, ARID1A / RFU, ZNF146 / Fold change vs veh, ZNF146 / RFU, ZNF330 / Fold change vs veh, ZNF330 / RFU, GPN3 / Fold change vs veh, GPN3 / RFU, C9orf123 / Fold change vs veh, C9orf123 / RFU, N4BP2L2 / Fold change vs veh, N4BP2L2 / RFU, ARFIP1 / Fold change vs veh, ARFIP1 / RFU, FAM179B / Fold change vs veh, FAM179B / RFU, BCL10 / Fold change vs veh, BCL10 / RFU, UHRF1BP1L / Fold change vs veh, UHRF1BP1L / RFU, BET1 / Fold change vs veh, BET1 / RFU, CNOT2 / Fold change vs veh, CNOT2 / RFU, ZNF268 / Fold change vs veh, ZNF268 / Fold change vs veh, ZNF507 / RFU, DGCR2 / Fold change vs veh, DGCR2 / RFU, WDSUB1 / Fold change vs veh, WDSUB1 / Fold change vs veh, HSP90B1 /// MIR3652 / RFU, ADSS / Fold change vs veh, ADSS / RFU, GK / Fold change vs veh, GK / RFU, ZNF148 / Fold change vs veh, ZNF148 / RFU, TAF9 / Fold change vs veh, TAF9 / RFU, SLC1A5 / Fold change vs veh, SLC1A5 / RFU, SLMO2 / Fold change vs veh, SLMO2 / RFU, ABCC4 / Fold change vs veh, ABCC4 / RFU, LOC101060439 /// RAP1B / Fold change vs veh, LOC101060439 /// RAP1B / RFU, RFX7 / Fold change vs veh, RFX7 / RFU, GTPBP10 / Fold change vs veh, GTPBP10 / RFU, CNEP1R1 / Fold change vs veh, CNEP1R1 / RFU, BIVM-ERCC5 /// ERCC5 / Fold change vs veh, BIVM-ERCC5 /// ERCC5 / RFU, ILF3 / Fold change vs veh, ILF3 / RFU 11762660_at / Fold change /veh 11762660_at / RFU VCAN (11757783_s_at) / Fold change /veh VCAN (11757783_s_at) / RFU DDX43 (11728927_at) / Fold change /veh DDX43 (11728927_at) / RFU KRT8 (11758188_x_at) / Fold change /veh KRT8 (11758188_x_at) / RFU NKD1 (11759106_at) / Fold change /veh NKD1 (11759106_at) / RFU SRD5A1 (11742802_a_at) / Fold change /veh SRD5A1 (11742802_a_at) / RFU TPSAB1 /// TPSB2 (11721975_s_at) / Fold change /veh TPSAB1 /// TPSB2 (11721975_s_at) / RFU GSTM3 (11746129_a_at) / Fold change /veh GSTM3 (11746129_a_at) / RFU IL23R (11737362_x_at) / Fold change /veh IL23R (11737362_x_at) / RFU TMEM51 (11727254_a_at) / Fold change /veh TMEM51 (11727254_a_at) / RFU PIWIL2 (11732686_x_at) / Fold change /veh PIWIL2 (11732686_x_at) / RFU ORM1 (11744905_x_at) / Fold change /veh ORM1 (11744905_x_at) / RFU CCDC152 (11743942_at) / Fold change /veh CCDC152 (11743942_at) / RFU ECM1 (11717891_a_at) / Fold change /veh ECM1 (11717891_a_at) / RFU IL23R (11748794_a_at) / Fold change /veh IL23R (11748794_a_at) / RFU TNFAIP8L3 (11732012_x_at) / Fold change /veh TNFAIP8L3 (11732012_x_at) / RFU MBOAT4 (11741988_at) / Fold change /veh MBOAT4 (11741988_at) / RFU 11764193_at / Fold change /veh 11764193_at / RFU TMEM53 (11763286_at) / Fold change /veh TMEM53 (11763286_at) / RFU MAGEB2 (11727129_at) / Fold change /veh MAGEB2 (11727129_at) / RFU TMEM200A (11744735_a_at) / Fold change /veh TMEM200A (11744735_a_at) / RFU CCDC152 (11751479_a_at) / Fold change /veh CCDC152 (11751479_a_at) / RFU FAM211A (11726209_a_at) / Fold change /veh FAM211A (11726209_a_at) / RFU RGS16 (11746705_a_at) / Fold change /veh RGS16 (11746705_a_at) / RFU VCAN (11755009_s_at) / Fold change /veh VCAN (11755009_s_at) / RFU RHOB (11743442_s_at) / Fold change /veh RHOB (11743442_s_at) / RFU RGS16 (11720943_a_at) / Fold change /veh RGS16 (11720943_a_at) / RFU RGS16 (11720944_at) / Fold change /veh RGS16 (11720944_at) / RFU, VPS4B / Fold change vs veh, VPS4B / RFU, CREB1 / Fold change vs veh, CREB1 / RFU, DNAJC13 / Fold change vs veh, DNAJC13 / RFU, GNAQ / Fold change vs veh, GNAQ / RFU, CDK5R1 / Fold change vs veh, CDK5R1 / RFU, ZRANB3 / Fold change vs veh, ZRANB3 / RFU, CUL4A / Fold change vs veh, CUL4A / RFU, CCNY / Fold change vs veh, CCNY / RFU, UFL1 / Fold change vs veh, UFL1 / RFU, COG3 / Fold change vs veh, COG3 / RFU, DIAPH2 / Fold change vs veh, DIAPH2 / RFU, SKA2 / Fold change vs veh, SKA2 / RFU, AFF3 / Fold change vs veh, AFF3 / RFU, LMF1 / Fold change vs veh, LMF1 / RFU, IPO11 / Fold change vs veh, IPO11 / RFU, DFFB / Fold change vs veh, DFFB / RFU, FOXP1 / Fold change vs veh, FOXP1 / RFU, CARD8 / Fold change vs veh, CARD8 / RFU, STRN3 / Fold change vs veh, STRN3 / RFU, ADK / Fold change vs veh, ADK / RFU, RASSF2 / Fold change vs veh, RASSF2 / RFU, WIPF1 / Fold change vs veh, WIPF1 / RFU, LARP1B / Fold change vs veh, LARP1B / RFU, RASA1 / Fold change vs veh, RASA1 / RFU, RB1 / Fold change vs veh, RB1 / RFU, PPFIA1 / Fold change vs veh, PPFIA1 / RFU, MAT2A / Fold change vs veh, MAT2A / RFU, CCT5 / Fold change vs veh, CCT5 / RFU, WDR92 / Fold change vs veh, WDR92 / RFU, CUX1 / Fold change vs veh, CUX1 / RFU, TTC7A / Fold change vs veh, TTC7A / RFU, TMEM135 / Fold change vs veh, TMEM135 / RFU, DEPTOR / Fold change vs veh, DEPTOR / RFU, CPM / Fold change vs veh, CPM / RFU, DNAJB6 / Fold change vs veh, DNAJB6 / RFU, CACNA2D3 / Fold change vs veh, CACNA2D3 / RFU, DTX4 / Fold change vs veh, DTX4 / RFU, TFCP2 / Fold change vs veh, TFCP2 / RFU, GMCL1 /// GMCL1P1 / Fold change vs veh, GMCL1 /// GMCL1P1 / RFU, AEBP2 / Fold change vs veh, AEBP2 / RFU, SNHG1 /// SNORD22 /// SNORD25 /// SNORD26 /// SNORD27 /// SNORD28 /// SNORD29 /// SNORD31 / Fold change vs veh, SNHG1 /// SNORD22 /// SNORD25 /// SNORD26 /// SNORD27 /// SNORD28 /// SNORD29 /// SNORD31 / Fold change (Aza/veh), C12orf56 (ProbeSet 11735607_a_at) / Fold change (ACY-1035/veh), C12orf56 (ProbeSet 11735607_a_at) / Fold change (Aza/veh), FGFR1OP (ProbeSet 11751329_s_at) / Fold change (ACY-1035/veh), FGFR1OP (ProbeSet 11751329_s_at) / Fold change (Aza/veh), VPS36 (ProbeSet 11739960_a_at) / Fold change (ACY-1035/veh), VPS36 (ProbeSet 11739960_a_at) / RFU SYPL1 (11715823_x_at) / Fold change /veh SYPL1 (11715823_x_at) / RFU IGFBP7 (11715501_s_at) / Fold change /veh IGFBP7 (11715501_s_at) / RFU REEP3 (11722064_at) / Fold change /veh REEP3 (11722064_at) / RFU IGLL1 (11728026_x_at) / Fold change /veh IGLL1 (11728026_x_at): dose or concentration left out as unconfirmed
Settings: MV-4-11 cells, 48 hours

`Nc1ccc(-c2cccs2)cc1NC(=O)c1ccc2c(c1)cc(C1CC1)n2CCN1CCOCC1` [ACY-1035] was tested, and the “RFU KRTAP10-11 (11738290_x_at)” value was 38.61 RFU.
